Like-named read-outs stand apart in the source and are kept apart here. Numbered stars: 1 amine (or outer) side, 2 acyl side, 3 side chain; on linkers, the order of the positions; unused ones are H or OH. Square brackets hold non-standard residues; d marks the D form. Peptide text beside a SMILES is read from it. NMeF = CN[CH](Cc1ccccc1)C(=O)O; X1 = O=C(C1CCCNN1[*:1])[*:2]; NMeV = CN[CH](C(=O)O)C(C)C; NMeS = CN[CH](CO)C(=O)O; NMeA = CN[CH](C)C(=O)O; βAla = NCCC(=O)O

The IC50 is the concentration that gives 50% inhibition.

For data set [1], the system named is colorectal cancer cell HCT116. The experiment in a line: cells. On the procedure: (§1) 6 types of cancer cell lines of Lung adenocarcinoma cell A549, colorectal cancer cell HCT116, breast cancer cell MDA-MB-231, liver adenocarcinoma cell SK-HEP-1, stomach adenocarcinoma cell SNU638, and chronic myeloid leukemia cell K562,and a normal cell line of pulmonary fibroblast MRC-5 were purchased from Korean Cell Line Bank (Seoul, Korea).
(§2) With Lenziamide compound prepared as in Example 1 added, the cell lines were cultured for about 72 hours. Thereafter, the resulting cell cultures were stained with sulforhodamine (SRB) that […] and washed to remove non-binding dye, and the stained cells were suspended in 10 mM of Tris (pH 10.0). The absorbance was measured at 515 nm and the cell proliferation was measured. Using TableCurve 2D v5.01 software (Systant Software Inc., Richmond, CA, USA), half maximal inhibitory concentration (IC50) value was calculated by nonlinear regression analysis method. All reagents were purchased from Sigma-Aldrich. As a positive control, etoposide was used.

Data set [2] concerns HCT116-5-FU resistant cell line. The experiment in a line: SRB cell growth inhibition, 5-fluorouracil resistant HCT116-5-FU. On the procedure:
as §2
In order to prepare HCT116-5-FU resistant cell line, 5-fluorouracil was treated to HCT116 cells 3 times a week, and only surviving cells were subcultured with treatment of increasing concentrations of 5-fluorouracil for 3 months. HCT116-5-FU resistant cell line was established by finally collecting and culturing only the surviving cells.

Data set [3] has as its system Lung adenocarcinoma cell A549. Kind of data set: cells. On the procedure:
as §1, §2

The subject of data set [4] is breast cancer cell MDA-MB-231. Kind of data set: cells. On the procedure:
as §1, §2

Data set [5] relates to chronic myeloid leukemia cell K562. The experiment in a line: cells. On the procedure:
as §1, §2

The test system of data set [6] is liver adenocarcinoma cell SK-HEP-1. The experiment in a line: cells. On the procedure:
as §1, §2

Data set [7] concerns pulmonary fibroblast MRC-5. The experiment in a line: cells. On the procedure:
as §1, §2

For data set [8], the system named is stomach adenocarcinoma cell SNU638. Kind of data set: cells. The protocol:
as §1, §2

In data set [9] the test system is colorectal cancer cell line HCT116. Kind of data set: Cell cycle analysis by flow cytometry. In kind it is cell-based, human. On the procedure:
In order to identify the action mechanism of lenziamide A showing an excellent cell proliferation inhibiting efficacy, cells of colorectal cancer cell line HCT116 were treated with lenziamide A at a concentration of 0 μM, 1.25 μM, 2.5 μM, or […]. The cell cycle control effect of lenziamide A was confirmed by using flow cytometry method, and the results are shown in FIGS. 2A and 2B.
A general note: A flow cytometer gives signals particle by particle.

Data set [10] concerns HCT116 cells. The experiment in a line: Annexin V/propidium iodide dual-stain analysis. In kind it is cell-based, human. On the procedure:
In order to confirm that sub G1 cell accumulation due to G2/M arrest effect of lenziamide A leads to cell apoptosis, HCT116 cells were treated with different concentrations of lenziamide A. Thereafter, cell death induction efficacy of lenziamide A was evaluated by using Annexin V/propidium iodide dual-stain analysis method which can identify cell deaths. The results of Annexin V/propidium iodide dual-stain analysis were shown in FIG. 3A, and stages of cells according to the concentration of lenziamide A were shown in FIG. 3B. The ratios (%) of live cells, early apoptosis, late apoptosis, necrosis, and total cell death were calculated.

In data set [11] the test system is HCT116 colorectal cancer xenograft. The experiment in a line: HCT116 xenograft animal model. In kind it is in vivo. As to conditions: 10, 30 mg/kg intravenous. The protocol: Cells of HCT116, a human-derived colorectal cancer cell line, were diluted to a concentration of 5×10^6 units/mL in RPMI (Roswell Park Memorial Institute) medium, and 0.2 mL of the diluted cells was injected subcutaneously to right flank of BALB/c mice (5-week old, male). When the size of the tumor reached about 100 mm^3, groups were randomly divided based on the size of the tumor.
Lenziamide A was administered by intravenous injection at a dose of 10 mg/body weight kg or 30 mg/body weight kg to the prepared xenograft animal models. A mixture mixed at a ratio of dimethyl sulfoxide: Cremophor: saline=0.5:0.5:9 was used as a negative control, and irinotecan was used as a positive control. Volume of the tumor (mm^3), body weight of the xenograft animal model (g), and final weight of the tumor (g) were measured from the first day of administration, and the results are shown in FIGS. 4A to 4C.

The test system of data set [12] is HCT116-5-FU resistant cell line xenograft. Kind of data set: HCT116-5-FU resistant xenograft animal model. In kind it is in vivo, BALB/c mice. As to conditions: 10 mg/kg intravenous. The protocol: HCT116-5-FU resistant cell line prepared as described in Example 2-5 was diluted to a concentration of […] in RPMI medium, and 0.2 mL of the diluted cell line was injected subcutaneously to right flanks of BALB/c mice (5-week old, male). When the size of the tumor reached about 100 mm^3, groups were randomly divided based on the size of the tumor.
Lenziamide A (10 mg/body weight kg), 5-FU (30 mg/body weight kg), or a combination thereof (10 mg/body weight kg of lenziamide A+30 mg/body weight kg of 5-FU) was administered by intravenous injection to resistant cancer cell line injected xenograft animal models. A mixture mixed at a ratio of dimethyl sulfoxide: Cremophor: saline=0.5:0.5:9 was used as a negative control. Volumes of tumor (mm^3) and body weights of the xenograft animal models (g) were measured from the first day of administration, and the results are shown in FIGS. 5A and 5B.

Data set [13] concerns metastatic colorectal cancer cell line (L-2). Kind of data set: Expression of metastasis related biomarkers. In kind it is cell-based. The settings on record: L-2 cells, 0 μM to 4 μM. The protocol: of non-metastatic cancer, thereby making it very difficult to treat it. A colorectal cancer cell line (C-1) was injected into appendix of laboratory mice and left for 6 weeks to artificially induce growth and metastasis of tumor, and colorectal cancer cells metastasized to the liver (L-2) were isolated and cultured. After administering 0 μM to 4 μM of lenziamide A to colorectal cancer cell line (C-1) and metastatic colorectal cancer cell line (L-2) obtained above, expression of biomarkers related to metastasis of cancer was identified by reverse transcription polymerase chain reaction (RT-PCR), and the results are shown in FIG. 6A.

Data set [14] has the same test system. Kind of data set: Metastatic colorectal cancer cell (L-2) injected animal model. In kind it is in vivo, laboratory mice. The settings on record: 5 mg/kg or 15 mg/kg. On the procedure: As described in Example 2-7 (1), a metastatic colorectal cancer cell line (L-2) was re-injected into appendix of laboratory mice to form tumor, and lenziamide A was administered at a dose of 5 mg/body weight kg or 15 mg/body weight kg. A mixture mixed at a ratio of dimethyl sulfoxide: Cremophor: saline=0.5:0.5:9 was used as a negative control. 10 mg/body weight kg of irinotecan was administered as a positive control. Volumes of tumor (mm3) and body weights of the xenograft animal model (g) were measured from the first day of administration, and the results are shown in FIGS. 6B and 6C.

Setting [15] is: Homo sapiens, HCT-116, read-out: IC50 HCT116.
The mark [16] stands for this setting: Homo sapiens, read-out: IC50 HCT116-5-FU.

Turning to `O=c1[nH]cc(F)c(=O)[nH]1` [5-fluorouracil], the IC50 turned out to be 4220 nM in [1] (setting [15]) and 36.7 µM in data set [2] (setting [16]). Moreover, in [2], the “Fold change (HCT116-5-FU/HCT116)” value turned out to be 8.70.
As for `COc1cc([C@@H]2c3cc4c(cc3[C@@H](O[C@@H]3O[C@@H]5CO[C@@H](C)O[C@H]5[C@H](O)[C@H]3O)[C@H]3COC(=O)[C@H]23)OCO4)cc(OC)c1O` [Etoposide, reference compound], the IC50 is 590 nM in [3] (Homo sapiens, A549, 72 h, read-out: IC50 A549); 3360 nM in data set [4] (Homo sapiens, MDA-MB-231, 72 h, read-out: IC50 MDA-MB-231); 760 nM in [5] (Homo sapiens, K562, 72 h, read-out: IC50 K562); 1860 nM in data set [1] (Homo sapiens, HCT-116, 72 h, read-out: IC50 HCT116); 760 nM in data set [1] (setting [15]); 450 nM in data set [6] (Homo sapiens, SK-HEP1, 72 h, read-out: IC50 SK-HEP-1). Besides, the IC50 was determined as 11.6 µM in [7] (Homo sapiens, MRC5, 72 h, read-out: IC50 MRC-5); 480 nM in data set [8] (Homo sapiens, SNU-638, 72 h, read-out: IC50 SNU638); 1.92 µM in [2] (setting [16]). Further, the “Fold change (HCT116-5-FU/HCT116)” value in [2] is on record as 2.53.
With `CCc1c2c(nc3ccc(OC(=O)N4CCC(N5CCCCC5)CC4)cc13)-c1cc3c(c(=O)n1C2)COC(=O)[C@]3(O)CC` [Irinotecan], the IC50 was determined as 1520 nM in data set [1] (setting [15]) and 5.65 µM in [2] (setting [16]). Moreover, the “Fold change (HCT116-5-FU/HCT116)” value in [2] stood at 3.72.
Regarding `CCC(C)C1NC(=O)C(Cc2ccccc2)N(C)C(=O)C2CCCNN2C(=O)C(CO)N(C)C(=O)C(CC(C)C)NC(=O)C(Cc2ccccc2)N(C)C(=O)C(C)NC(=O)C(C(C)C)N(C)C(=O)CCNC(=O)C(C)N(C)C1=O` (stereo not shown) [Lenziamide A] (cyclo([X1][NMeF]I[NMeA][βAla][NMeV]A[NMeF]L[NMeS]); configuration not given here), the IC50 in data set [3] (72 h) came to 800 nM; in [4] (72 h) it was 620 nM; in data set [5] (72 h) it was 770 nM; in [1], 360 nM; in [1] (72 h), 370 nM; in data set [6] (72 h) it was 390 nM. Also, the IC50 in [7] (72 h) was greater than 20 µM; in data set [8] (72 h), 440 nM; in [2] (72 h), 0.42 µM. In [2], the “growth of HCT116-5-FU resistant cell line” value is on record as “effectively inhibited growth of HCT116-5-FU resistant cell line”. In data set [2] (IC50 of HCT116-5-FU with respect to IC50 of HCT116), the “Fold change (HCT116-5-FU/HCT116)” value is reported as 1.16. Moreover, the “sub G1 cell accumulation (cell death)” value in data set [9] (after G2/M arrest, high concentration) is reported as “followed by sub G1 cell accumulation”. In addition, in [9] (until 24 hours after treatment, 0-5 μM), the “G2/M cell cycle arrest” value is listed as “G2/M cell cycle arrest was increased”. Moreover, the “early apoptosis cell population” value in [10] (5 μM) is reported as “about 20.37%”. In addition, the “late apoptosis cell population” value in data set [10] (5 μM) is on record as 51.40%. Also, the apoptosis entry in data set [10] (different concentrations of lenziamide A) is “apoptosis increased dependent on the concentration”. The “tumor growth (volume, final weight)” value in data set [11] is reported as “concentration-dependent tumor growth inhibitory effect”. In addition, the “body weight (toxicity)” value in data set [11] (during administration period) is “no significant weight decrease”. In addition, the body weight result in [12] is “without significant weight loss”. The “growth of resistant tumor” value in [12] is given as “effectively inhibited growth of resistant tumor”. For the same molecule, the “expression of E-cadherin” value in [13] is recorded as “increased”. The “expression of N-Cadherin and vimentin” value in [13] is on record as “decreased”. In addition, in data set [14], the “growth of tumor in the appendix” value was “also inhibited”. For the same molecule, the “metastasis of the tumor to other organs” value in data set [14] was “effectively inhibited”.
For the molecule `CCC(C)C1NC(=O)C(Cc2c[nH]c3ccccc23)N(C)C(=O)C2CCCNN2C(=O)C(CO)N(C)C(=O)C(CC(C)C)NC(C)C(Cc2ccccc2)N(C)C(=O)C(C)NC(=O)C(C(C)C)N(C)C(=O)CCNC(=O)C(C)N(C)C1=O` (stereo not shown) [Lenziamide B], the IC50 in data set [3] (72 h) was 430 nM; in data set [4] (72 h), 230 nM; in [5] (72 h), 360 nM; in data set [1] (72 h) it was 200 nM; in data set [6] (72 h), 220 nM; in [7] (72 h), greater than 20 µM. Besides, 250 nM corresponded to half-maximal inhibition in data set [8] (72 h) (IC50).
Turning to `CC(C)CC1NC(C)C(Cc2ccccc2)N(C)C(=O)C(C)NC(=O)C(C(C)C)N(C)C(=O)CCNC(=O)C(C)N(C)C(=O)C(C(C)C)NC(=O)C(Cc2ccccc2)N(C)C(=O)C2CCCNN2C(=O)C(CO)N(C)C1=O` (stereo not shown) [Lenziamide C], the IC50 in [3] (72 h) was 760 nM; in data set [4] (72 h), 960 nM; in data set [5] (72 h), 650 nM; in data set [1] (72 h), 520 nM; in data set [6] (72 h) it was 530 nM; in data set [7] (72 h) it was greater than 20 µM. Besides, the IC50 in data set [8] (72 h) came out at 430 nM.
With `CC(C)CC1NC(C)C(Cc2ccccc2)N(C)C(=O)C(C)NC(=O)C(C(C)C)N(C)C(=O)CCNC(=O)C(C)NC(=O)C(C(C)C)NC(=O)C(Cc2ccccc2)N(C)C(=O)C2CCCNN2C(=O)C(CO)N(C)C1=O` (stereo not shown) [Lenziamide E], the IC50 was 1780 nM in data set [3] (72 h); 1590 nM in [4] (72 h); 1210 nM in data set [5] (72 h); 1010 nM in [1] (72 h); 960 nM in [6] (72 h); greater than 20 µM in [7] (72 h). Further, in data set [8] (72 h), half-maximal inhibition (IC50) was put at 1320 nM.

(Values after US20260001911A1, “CYCLIC PEPTIDE COMPOUND CONTAINING PIPERAZIC ACID, METHOD OF PRODUCING SAME, AND USES OF SAME” (MolGenBio Co., Ltd., priority 2020, published 2026).)
